Values after ≈ are worked out from the molar mass of the structure shown.
What was measured:
[1] = test system: Mycobacterium tuberculosis; experiment: Antimycobacterial activity against Mycobacterium tuberculosis H37Ra after […] by microplate alamar Blue assay; format: functional
NCI-H187 = experiment: Cytotoxicity against human NCI-H187 cells by sulforhodamine B assay; format: functional, cell-based
KB = experiment: Cytotoxicity against human KB cells by sulforhodamine B assay; format: functional, cell-based
Vero = experiment: Cytotoxicity against african green monkey Vero cells by sulforhodamine B assay; format: cell-based; details: Chlorocebus sabaeus

SMILES | MIC [1] | IC50 (NCI-H187) | IC50 (KB) | IC50 (Vero)
CC(C)=CCc1c2c(c(O)c3c(=O)c(O)c(-c4ccc(O)cc4)oc13)C=CC(C)(C)O2 [DEHYDROLUPINIFOLINOL] | 12.5 µg/mL (≈ 29.7 µM) | 3.9 µg/mL (≈ 9.28 µM) | 5.8 µg/mL (≈ 13.8 µM) | 11.1 µg/mL (≈ 26.4 µM)
COc1cccc2c1C(=O)c1c(O)c3c(c(O)c1C2=O)C[C@@](O)(C(=O)CO)C[C@@H]3O[C@H]1C[C@H](N)[C@H](O)[C@H](C)O1 [DOXORUBICIN] | – | 0.042 µg/mL (≈ 0.0773 µM) | 0.12 µg/mL (≈ 0.221 µM) | –
Cc1c2ccncc2c(C)c2c1[nH]c1ccccc12 [ELLIPTECINE] | – | 0.44 µg/mL (≈ 1.79 µM) | 0.37 µg/mL (≈ 1.5 µM) | –
CC(C)=CCc1c(O)c2c(c3c1OC(C)(C)C=C3)O[C@H](c1ccc(O)cc1O)CC2=O [ERIOSEMAONE A] | 12.5 µg/mL (≈ 29.6 µM) | 6 µg/mL (≈ 14.2 µM) | 5.8 µg/mL (≈ 13.7 µM) | –
CC(C)=CCc1c2c(c(O)c3c1O[C@H](c1ccc(O)cc1O)CC3=O)C=CC(C)(C)O2 [FLEMICHIN D] | 12.5 µg/mL (≈ 29.6 µM) | 2.1 µg/mL (≈ 4.97 µM) | 3.3 µg/mL (≈ 7.81 µM) | –
NNC(=O)c1ccncc1 [ISONIAZID] | 0.023 µg/mL (≈ 0.168 µM) | – | – | –
COc1ccc([C@H]2Oc3c(CC=C(C)C)c4c(c(O)c3C(=O)[C@@H]2O)C=CC(C)(C)O4)cc1 [KHONKLONGINOL A] | 25 µg/mL (≈ 57.3 µM) | 3 µg/mL (≈ 6.87 µM) | 3.1 µg/mL (≈ 7.1 µM) | 7.9 µg/mL (≈ 18.1 µM)
COc1ccc([C@H]2Oc3c(CC=C(C)C)c4c(c(O)c3C(=O)[C@H]2O)C=CC(C)(C)O4)cc1 [KHONKLONGINOL B] | 50 µg/mL (≈ 115 µM) | 4.3 µg/mL (≈ 9.85 µM) | 3.8 µg/mL (≈ 8.71 µM) | 6.9 µg/mL (≈ 15.8 µM)
COc1ccc(-c2oc3c(CC=C(C)C)c4c(c(O)c3c(=O)c2O)C=CC(C)(C)O4)cc1 [KHONKLONGINOL F] | 100 µg/mL (≈ 230 µM) | 2.4 µg/mL (≈ 5.52 µM) | 6.7 µg/mL (≈ 15.4 µM) | 7 µg/mL (≈ 16.1 µM)
COc1ccc([C@@H]2CC(=O)c3c(O)c4c(c(CC=C(C)C)c3O2)OC(C)(C)C=C4)c(O)c1 [KHONKLONGINOL H] | 25 µg/mL (≈ 57.3 µM) | 3.3 µg/mL (≈ 7.56 µM) | 5.4 µg/mL (≈ 12.4 µM) | 6.4 µg/mL (≈ 14.7 µM)
CC(C)=CCc1c2c(c(O)c3c1O[C@H](c1ccc(O)cc1)[C@@H](O)C3=O)C=CC(C)(C)O2 [LUPINIFOLINOL] | 25 µg/mL (≈ 59.2 µM) | 3.5 µg/mL (≈ 8.28 µM) | 1.73 µg/mL (≈ 4.09 µM) | –
CC(C)=CCc1c2c(c(O)c3c1O[C@H](c1ccc(O)cc1)CC3=O)C=CC(C)(C)O2 [LUPINIFOLIN] | 12.5 µg/mL (≈ 30.8 µM) | 6.5 µg/mL (≈ 16 µM) | 2.4 µg/mL (≈ 5.9 µM) | –
CN[C@@H]1[C@H](O[C@H]2[C@H](O[C@H]3[C@H](O)[C@@H](O)[C@H](N=C(N)N)[C@@H](O)[C@@H]3N=C(N)N)O[C@@H](C)[C@]2(O)C=O)O[C@@H](CO)[C@H](O)[C@H]1O [STREPTOMYCIN] | 0.156 µg/mL (≈ 0.268 µM) | – | – | –

— ChEMBL document CHEMBL1152397, “Cytotoxic and antimycobacterial prenylated flavonoids from the roots of Eriosema chinense” (J Nat Prod, 2009)
